# Reference: ChEMBL document CHEMBL3885881, “DrugMatrix”
# Species: Rattus norvegicus
# Assay: DrugMatrix - Regimen: Daily Repeat
# Type: toxicity, organism-based, Sprague-Dawley
# Set-up: regimen Daily Repeat, gender Male, age 6-8 weeks
# Settings: in vivo, po, route oral GAVAGE, vehicle 100 % WATER; for ABSOLUTE BASOPHIL / ABSOLUTE EOSINOPHIL / ABSOLUTE LYMPHOCYTE / ABSOLUTE MONOCYTE / ABSOLUTE SEGMENTED NEUTROPHIL / BASOPHIL / EOSINOPHIL / ERYTHROCYTE COUNT / HEMATOCRIT / HEMOGLOBIN / LEUKOCYTE COUNT / LYMPHOCYTE / MEAN CORPUSCULAR HEMOGLOBIN / MEAN CORPUSCULAR HEMOGLOBIN CONCENTRATION / MEAN CORPUSCULAR VOLUME / MONOCYTE / NEUTROPHIL / NUCLEATED RED BLOOD CELLS / PLATELET COUNT: tissue Blood; for ALANINE AMINOTRANSFERASE / ALBUMIN / ALKALINE PHOSPHATASE / ASPARTATE AMINOTRANSFERASE / BLOOD UREA NITROGEN / CARBON DIOXIDE / CHLORIDE / CHOLESTEROL / CREATINE PHOSPHOKINASE / CREATININE / GLUCOSE / LACTATE DEHYDROGENASE / LIPASE / PHOSPHORUS / POTASSIUM / SODIUM / TOTAL BILIRUBIN / TOTAL PROTEIN / URIC ACID: tissue Plasma
# [1] = 0 mg/kg, 72 h, dose level Control, time 3 day
# [2] = 0 mg/kg, 120 h, dose level Control, time 5 day
# [3] = 28 mg/kg, 72 h, dose level Low, time 3 day
smiles,measurement,setting,value
CS(=O)(=O)c1ccc([C@@H](O)[C@@H](CO)NC(=O)C(Cl)Cl)cc1 [THIAMPHENICOL],ABSOLUTE BASOPHIL,[1],0 CELLS/uL
same,ABSOLUTE EOSINOPHIL,[1],151.33 CELLS/uL
same,ABSOLUTE LYMPHOCYTE,[1],10599.5 CELLS/uL
same,ABSOLUTE MONOCYTE,[1],109.5 CELLS/uL
same,ABSOLUTE SEGMENTED NEUTROPHIL,[1],1139.67 CELLS/uL
same,BASOPHIL,[1],0%
same,EOSINOPHIL,[1],0.83%
same,ERYTHROCYTE COUNT,[1],5.54 x10E6/uL
same,HEMATOCRIT,[1],35.35%
same,HEMOGLOBIN,[1],13.22 G/DL
same,LEUKOCYTE COUNT,[1],12 x10E3/uL
same,LYMPHOCYTE,[1],89%
same,MEAN CORPUSCULAR HEMOGLOBIN,[1],23.88 pg
same,MEAN CORPUSCULAR HEMOGLOBIN CONCENTRATION,[1],37.4 G/DL
same,MEAN CORPUSCULAR VOLUME,[1],63.85 fL
same,MONOCYTE,[1],1%
same,NEUTROPHIL,[1],9.17%
same,NUCLEATED RED BLOOD CELLS,[1],0 /100WBC
same,PLATELET COUNT,[1],1333.33 x10E3/uL
same,ALANINE AMINOTRANSFERASE,[1],53.17 u/L
same,ALBUMIN,[1],4.32 G/DL
same,ALKALINE PHOSPHATASE,[1],404.33 u/L
same,ASPARTATE AMINOTRANSFERASE,[1],83.17 u/L
same,BLOOD UREA NITROGEN,[1],15.67 mg/dL
same,CARBON DIOXIDE,[1],27.33 mmol/L
same,CHLORIDE,[1],101.83 MEQ/L
same,CHOLESTEROL,[1],68.67 mg/dL
same,CREATINE PHOSPHOKINASE,[1],276.17 u/L
same,CREATININE,[1],0.18 mg/dL
same,GLUCOSE,[1],163.5 mg/dL
same,LACTATE DEHYDROGENASE,[1],144.67 u/L
same,LIPASE,[1],8.83 u/L
same,PHOSPHORUS,[1],11.72 mg/dL
same,POTASSIUM,[1],5.99 MEQ/L
same,SODIUM,[1],143.57 MEQ/L
same,TOTAL BILIRUBIN,[1],0.2 mg/dL
same,TOTAL PROTEIN,[1],6.1 G/DL
same,URIC ACID,[1],1.38 mg/dL
same,ABSOLUTE BASOPHIL,[2],0 CELLS/uL
same,ABSOLUTE EOSINOPHIL,[2],248.67 CELLS/uL
same,ABSOLUTE LYMPHOCYTE,[2],12977.83 CELLS/uL
same,ABSOLUTE MONOCYTE,[2],19.67 CELLS/uL
same,ABSOLUTE SEGMENTED NEUTROPHIL,[2],1137.17 CELLS/uL
same,BASOPHIL,[2],0%
same,EOSINOPHIL,[2],1.67%
same,ERYTHROCYTE COUNT,[2],5.82 x10E6/uL
same,HEMATOCRIT,[2],36.35%
same,HEMOGLOBIN,[2],13.58 G/DL
same,LEUKOCYTE COUNT,[2],14.38 x10E3/uL
same,LYMPHOCYTE,[2],90.5%
same,MEAN CORPUSCULAR HEMOGLOBIN,[2],23.32 pg
same,MEAN CORPUSCULAR HEMOGLOBIN CONCENTRATION,[2],37.42 G/DL
same,MEAN CORPUSCULAR VOLUME,[2],62.42 fL
same,MONOCYTE,[2],0.17%
same,NEUTROPHIL,[2],7.67%
same,NUCLEATED RED BLOOD CELLS,[2],0 /100WBC
same,PLATELET COUNT,[2],1337.67 x10E3/uL
same,ALANINE AMINOTRANSFERASE,[2],48.5 u/L
same,ALBUMIN,[2],4.32 G/DL
same,ALKALINE PHOSPHATASE,[2],354.33 u/L
same,ASPARTATE AMINOTRANSFERASE,[2],80 u/L
same,BLOOD UREA NITROGEN,[2],16 mg/dL
same,CARBON DIOXIDE,[2],27.33 mmol/L
same,CHLORIDE,[2],100.33 MEQ/L
same,CHOLESTEROL,[2],68 mg/dL
same,CREATINE PHOSPHOKINASE,[2],325.17 u/L
same,CREATININE,[2],0.23 mg/dL
same,GLUCOSE,[2],172 mg/dL
same,LACTATE DEHYDROGENASE,[2],254.83 u/L
same,LIPASE,[2],8.33 u/L
same,PHOSPHORUS,[2],12.17 mg/dL
same,POTASSIUM,[2],6.28 MEQ/L
same,SODIUM,[2],143.57 MEQ/L
same,TOTAL BILIRUBIN,[2],0.18 mg/dL
same,TOTAL PROTEIN,[2],6.12 G/DL
same,URIC ACID,[2],1.78 mg/dL
same,ABSOLUTE BASOPHIL,[3],0 CELLS/uL
same,ABSOLUTE EOSINOPHIL,[3],49.67 CELLS/uL
same,ABSOLUTE LYMPHOCYTE,[3],5981.33 CELLS/uL
same,ABSOLUTE MONOCYTE,[3],18.33 CELLS/uL
same,ABSOLUTE SEGMENTED NEUTROPHIL,[3],584 CELLS/uL
same,BASOPHIL,[3],0%
same,EOSINOPHIL,[3],0.67%
same,ERYTHROCYTE COUNT,[3],5.43 x10E6/uL
same,HEMATOCRIT,[3],34.57%
same,HEMOGLOBIN,[3],13.07 G/DL
same,LEUKOCYTE COUNT,[3],6.63 x10E3/uL
same,LYMPHOCYTE,[3],90%
same,MEAN CORPUSCULAR HEMOGLOBIN,[3],24 pg
same,MEAN CORPUSCULAR HEMOGLOBIN CONCENTRATION,[3],37.8 G/DL
same,MEAN CORPUSCULAR VOLUME,[3],63.6 fL
same,MONOCYTE,[3],0.33%
same,NEUTROPHIL,[3],9%
same,NUCLEATED RED BLOOD CELLS,[3],0 /100WBC
same,PLATELET COUNT,[3],1197 x10E3/uL
same,ALANINE AMINOTRANSFERASE,[3],57.33 u/L
same,ALBUMIN,[3],4.33 G/DL
same,ALKALINE PHOSPHATASE,[3],344.67 u/L
same,ASPARTATE AMINOTRANSFERASE,[3],83 u/L
same,BLOOD UREA NITROGEN,[3],16 mg/dL
same,CARBON DIOXIDE,[3],29 mmol/L
same,CHLORIDE,[3],102.33 MEQ/L
same,CHOLESTEROL,[3],74.33 mg/dL
same,CREATINE PHOSPHOKINASE,[3],180 u/L
same,CREATININE,[3],0.21 mg/dL
same,GLUCOSE,[3],145.33 mg/dL
same,LACTATE DEHYDROGENASE,[3],123 u/L
same,LIPASE,[3],8.33 u/L
same,PHOSPHORUS,[3],13.03 mg/dL
same,POTASSIUM,[3],6.66 MEQ/L
same,SODIUM,[3],147.17 MEQ/L
same,TOTAL BILIRUBIN,[3],0.17 mg/dL
same,TOTAL PROTEIN,[3],6.53 G/DL
same,URIC ACID,[3],1.33 mg/dL
